IC50 and inhibition data for 4 compounds are collected here from patent publication US20050101657A1, “Androgen receptor antagonists” (Takeda Chemical Industries Ltd., priority 2001, published 2005).

The subject of experiment [1] is Human prostate cancer cells LNCaP-FGC. As to the kind of experiment: Inhibition of prostate-specific antigen (PSA) production in prostate cancer cells. Type of experiment: cell-based. The conditions noted are these: 72 h, testosterone 1 ng/ml, three days after addition, ELISA, read-out: IC50, PSA production in culture supernatant. Here is the method:
Human prostate cancer cells LNCaP-FGC were seeded in a 24-well plate at a concentration of 40,000 cells/ml/well or in a 96-well plate at a concentration of 5000 cells/100 μl/well. On the following day, testosterone (final concentration 1 ng/ml) and a compound (final concentration 0.01 to 10 μM) were added. Three days after the addition, the concentration of PSA in the supernatant of the culture solution was measured by ELISA, and IC50 was calculated.
On the technique in general: In an ELISA, binding on a coated surface is turned into a signal by an enzyme label.

The target in experiment [2] is T1, wild type androgen receptor (Homo sapiens, UniProt P10275).
T1 sequence (P10275 1-920): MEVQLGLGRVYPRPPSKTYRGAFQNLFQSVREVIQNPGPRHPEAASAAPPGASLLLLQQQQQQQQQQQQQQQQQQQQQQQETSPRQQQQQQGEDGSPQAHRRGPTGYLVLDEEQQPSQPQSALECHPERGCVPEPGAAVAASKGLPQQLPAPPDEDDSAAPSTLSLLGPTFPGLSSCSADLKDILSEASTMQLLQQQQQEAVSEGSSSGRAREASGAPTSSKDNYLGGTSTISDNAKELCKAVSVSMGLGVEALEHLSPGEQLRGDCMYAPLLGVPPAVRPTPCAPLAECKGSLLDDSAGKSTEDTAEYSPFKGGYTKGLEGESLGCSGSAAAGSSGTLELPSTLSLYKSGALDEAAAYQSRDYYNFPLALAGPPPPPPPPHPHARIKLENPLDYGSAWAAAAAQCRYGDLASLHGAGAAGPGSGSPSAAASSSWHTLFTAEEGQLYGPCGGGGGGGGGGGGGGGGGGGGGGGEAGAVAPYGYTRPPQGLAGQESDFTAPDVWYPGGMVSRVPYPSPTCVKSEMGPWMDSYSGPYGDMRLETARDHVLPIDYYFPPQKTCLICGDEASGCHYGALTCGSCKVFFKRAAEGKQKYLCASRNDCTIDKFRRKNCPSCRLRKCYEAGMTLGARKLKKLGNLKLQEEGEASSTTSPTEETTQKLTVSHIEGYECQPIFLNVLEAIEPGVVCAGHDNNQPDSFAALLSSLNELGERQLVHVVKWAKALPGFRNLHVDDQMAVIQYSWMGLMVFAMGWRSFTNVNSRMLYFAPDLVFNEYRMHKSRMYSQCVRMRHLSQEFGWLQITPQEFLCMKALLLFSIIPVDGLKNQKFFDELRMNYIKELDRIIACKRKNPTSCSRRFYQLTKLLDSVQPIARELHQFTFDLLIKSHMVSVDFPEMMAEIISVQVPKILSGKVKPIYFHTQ
Kind of experiment: AR-binding inhibition test (wild type). The conditions noted are these: radio labeled Mibolerone 3 nM; 4° C., 3 hours; dextran/charcoal method. Here is the method:
(§1) A solution of wild type or LNCaP type mutant androgen receptor, radio labeled Mibolerone (final concentration 3 nM) and a compound (final concentration 0.001 to 10 μM) were mixed. The mixture was incubated at 4° C. for 3 hours, and by the dextran/charcoal method, B (Bound) and F (Free) Mibolerone were separated. The radioactivity of B was measured and IC50 was calculated.

The target of another experiment is T2, mutation type AR (W741C) (Homo sapiens, UniProt P10275, W742C).
T2 construct: expressed in transfected cells; host or cells: Cos-7
T2 sequence (P10275 1-920 W742C): T1 sequence (P10275 1-920) with W742C
As to the kind of experiment: AR transcription inhibition test (luciferase reporter). Type of experiment: cell-based. The note with it: Cos-7 cells; test compound 1 μM; DHT 0.04 μM; 24 hours; luciferase activity; read-out: Inhibition rate (%) relative to the control. Here is the method:
Cos-7 cells were inoculated in a flask at 5,000,000 cells, and incubated in a culture solution (DMEM+10% Dextran Charcoal (DCC)-Fetal Bovine Serum (FBS) +2 mM glutamine) for 24 hours. A vector DNA in which a mutation type AR (W741C) gene was inserted and a vector DNA combined with luciferase gene downstream of the androgen responsive promoter were cotransfected by the liposome method. Two hours later, the culture medium was replaced and incubation was further carried out for 3 hours. DHT (Dihydrotestosterone) at a final concentration 0.04 μM and a test compound at a final concentration of 1 μM were added, and incubation was further carried out for 24 hours. By measuring luciferase activity, AR transcription inhibitory activity of the test compound was examined.
A general note: A reporter such as luciferase makes a cellular process visible.

In experiment [3] the target is T3, LNCaP type mutant androgen receptor (Homo sapiens, UniProt P10275, T878A).
T3 sequence (P10275 1-920 T878A): T1 sequence (P10275 1-920) with T878A
As to the kind of experiment: AR-binding inhibition test (LNCaP type). The note with it: radio labeled Mibolerone 3 nM; 4° C., 3 hours; dextran/charcoal method. The procedure:
as §1

Molecules are shown by their SMILES. Positions count from the first letter of the chain named.

Broadly, the IC50 is the concentration needed to halve the response being measured. `CC(O)(CS(=O)(=O)c1ccc(F)cc1)C(=O)Nc1ccc(C#N)c(C(F)(F)F)c1` (stereo not shown) [Bicalutamide, bicalutamide, reference compound]: in experiment [1], the IC50 was found to be 823 nM.
By inhibition is commonly meant how much of the control response was suppressed. As to `CCOC(=O)c1c(C)[nH]c(C)c1-c1ccc([N+](=O)[O-])cc1` [Example 1, Ethyl 2,5-dimethyl-4-(4-nitrophenyl)-1H-pyrrole-3-carboxylate], the IC50 in experiment [2] was 190 nM; in experiment [3] it was 200 nM; in experiment [1] it was 392 nM. The inhibition at 1 µM at mutation type AR (W741C) turned out to be 64.3%.
Taken in the same sequence, the figures for `CCOC(=O)c1c(-c2ccc([N+](=O)[O-])cc2)c(C)n(Cc2ccccc2)c1C` [Example 4, Ethyl 1-benzyl-2,5-dimethyl-4-(4-nitrophenyl)-1H-pyrrole-3-carboxylate] were 7.8 nM, 7.5 nM, 87 nM and 20.1%.
In the same order, the values of `COC(=O)c1c(-c2ccc(C#N)cc2)c(C)n(Cc2ccc(C#N)cc2)c1C` [Example 80, Methyl 1-(4-cyanobenzyl)-4-(4-cyanophenyl)-2,5-dimethyl-1H-pyrrole-3-carboxylate] are 40 nM, 68 nM, 34 nM and 80.1%.
